Data taken from patent publication US20250206730A1 (AUTOTELIC BIO INC., priority 2022, published 2025).

Tests used:
TGF-β signaling [1] = test: Assay for evaluating cellular inhibition of TGF-β signaling, HEK293 (SBE reporter) luciferase reporter; assay type: cell-based; conditions: Homo sapiens; HEK293 (SBE reporter) stable cells, 0.5% FBS, 2 h pre-treatment, TGF-β1 2 ng/mL 24 h; read-out: IC50 HEK 293 Cell
Experimental: [Example 2] Assay for Evaluating Cellular Inhibition of TGF-β Signaling
4T1 (SBE-luc2P) transient pool that have SBE-luc2P (hygro) expression plasmid or HEK293 (SBE reporter) stable cells (BPS bioscience) were seeded at 6×10^3 cells/well or 2.5×10^4 cells/well in 96-well plate, respectively. 4T1 (SBE-luc2P) transient pool were pre-treated with novel compound synthesized in Example 1 above in 0.2% FBS at approximately 60% confluence at 37° C. in 5% CO2. Also, HEK293 (SBE reporter) stable cells were pre-treated with each test compounds of formula in 0.5% FBS at approximately 80% confluence at 37° C. in 5% CO2. After 2 hours, cells were treated with TGF-β1 (2 ng/mL) for 24 h at 37° C. in 5% CO2. Cell lysates were prepared using Luciferase Assay (Promega) according to the manufacturer's instruction, and luminescence was measured by a plate reader, Biotek Synergy H1 (Vermont, USA).

ALK5 kinase = molecular target: T1, ALK5 kinase (Homo sapiens, UniProt P36897); test: LanthaScreen Eu Kinase Binding Assay; conditions: Kinase Tracer 178, Eu-anti-GST Antibody, read-out: IC50 Enzyme
T1 sequence (P36897 34-503): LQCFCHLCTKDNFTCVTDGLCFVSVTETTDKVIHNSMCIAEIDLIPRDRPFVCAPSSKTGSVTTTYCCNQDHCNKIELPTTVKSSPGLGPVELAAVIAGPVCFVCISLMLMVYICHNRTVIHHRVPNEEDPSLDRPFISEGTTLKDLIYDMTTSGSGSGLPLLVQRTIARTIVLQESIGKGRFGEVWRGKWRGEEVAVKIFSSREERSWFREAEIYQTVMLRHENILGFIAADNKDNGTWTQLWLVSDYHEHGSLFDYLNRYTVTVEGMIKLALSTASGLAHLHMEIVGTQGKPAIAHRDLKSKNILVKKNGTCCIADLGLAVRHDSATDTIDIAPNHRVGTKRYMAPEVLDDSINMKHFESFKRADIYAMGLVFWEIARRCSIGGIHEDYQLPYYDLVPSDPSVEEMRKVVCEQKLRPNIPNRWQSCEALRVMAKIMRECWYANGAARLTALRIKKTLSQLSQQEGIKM
In short: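 Tracer-displacement TR-FRET: after 30 min RT compound–kinase preincubation, Eu-labelled anti-GST antibody plus Kinase Tracer 178 were incubated 60 min at RT. Binding was read as a lower 665 nm/615 nm emission ratio (excitation 340 nm).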

TGF-β signaling [2] = test: Assay for evaluating cellular inhibition of TGF-β signaling, 4T1 (SBE-luc2P) luciferase reporter; assay type: cell-based; conditions: Mus musculus, 4T1, 4T1 (SBE-luc2P) transient pool, 0.2% FBS, 2 h pre-treatment, TGF-β1 2 ng/mL 24 h; read-out: IC50 4T1 Cell
In short: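 Luminescence from SMAD-binding-element luciferase was measured after 24 h of 2 ng/mL TGF-β1 at 37 °C, following 2 h compound pre-treatment. HEK293 stable reporter cells were used at 2.5×10^4/well in 0.5% FBS (~80% confluent); the 4T1 SBE-luc2P transient pool at 6×10^3/well in 0.2% FBS (~60% confluent).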

## CCc1nc(-c2ccccc2)c(Oc2ccnc(Nc3ccc(C(=O)NC(C)C)cn3)c2)s1 [A-196, 6-((4-((2-Ethyl-4-phenylthiazol-5-yl)oxy)pyridin-2-yl)amino)-N-isopropylnicotinamide]
TGF-β signaling [1]
  IC50: < 100 nM

## CCc1nc(-c2ccccc2)c(Oc2ccnc(Nc3ccc(C(=O)NCCN4CCCC4)cn3)c2)s1 [A-199, 6-((4-((2-Ethyl-4-phenylthiazol-5-yl)oxy)pyridin-2-yl)amino)-N-(2-(pyrrolidin-1-yl)ethyl)nicotinamide]
TGF-β signaling [1]
  IC50: < 100 nM

## CCc1nc(-c2ccccc2)c(Oc2ccnc(Nc3ccc(C(=O)NCCN4CCN(C)CC4)cn3)c2)s1 [A-201, 6-((4-((2-Ethyl-4-phenylthiazol-5-yl)oxy)pyridin-2-yl)amino)-N-(2-(4-methylpiperazin-1-yl)ethyl)nicotinamide]
TGF-β signaling [1]
  IC50: < 100 nM

## CCc1nc(-c2ccccc2)c(Oc2ccnc(Nc3ccc(C(=O)NCCN4CCN(C(C)C)CC4)cn3)c2)s1 [A-202, 6-((4-((2-Ethyl-4-phenylthiazol-5-yl)oxy)pyridin-2-yl)amino)-N-(2-(4-isopropylpiperazin-1-yl)ethyl)nicotinamide]
TGF-β signaling [1]
  IC50: < 100 nM

## CCc1nc(-c2ccccc2)c(Oc2ccnc(Nc3ccc(C(=O)NCCN4CCN(CC)CC4)cn3)c2)s1 [A-203, 6-((4-((2-Ethyl-4-phenylthiazol-5-yl)oxy)pyridin-2-yl)amino)-N-(2-(4-ethylpiperazin-1-yl)ethyl)nicotinamide]
TGF-β signaling [1]
  IC50: < 100 nM

## CCc1nc(-c2ccccc2)c(Oc2ccnc(Nc3ccc(N4CCC(N)C4)cn3)c2)s1 (centres unmarked) [A-204, 5-(3-Aminopyrrolidin-1-yl)-N-(4-((2-ethyl-4-phenylthiazol-5-yl)oxy)pyridin-2-yl)pyridin-2-amine]
TGF-β signaling [1]
  IC50: < 100 nM

## CCc1nc(-c2ccccc2)c(Oc2ccnc(Nc3ccc(NCCN4CCN(C(C)C)CC4)cc3)c2)s1 [A-205, N^1-(4-((2-Ethyl-4-phenylthiazol-5-yl)oxy)pyridin-2-yl)-N^4-(2-(4-isopropylpiperazin-1-yl)ethyl)benzene-1,4-diamine]
TGF-β signaling [1]
  IC50: < 100 nM

## CCc1nc(-c2ccccc2)c(Oc2ccnc(Nc3ccc(NCCN4CCN(C)CC4)cc3)c2)s1 [A-206, N^1-(4-((2-Ethyl-4-phenylthiazol-5-yl)oxy)pyridin-2-yl)-N^4-(2-(4-methylpiperazin-1-yl)ethyl)benzene-1,4-diamine]
TGF-β signaling [1]
  IC50: < 100 nM

## CCc1nc(-c2ccccc2)c(Oc2ccnc(Nc3ccc(NCCN4CCN(CC)CC4)cc3)c2)s1 [A-207, N^1-(4-((2-Ethyl-4-phenylthiazol-5-yl)oxy)pyridin-2-yl)-N^4-(2-(4-ethylpiperazin-1-yl)ethyl)benzene-1,4-diamine]
TGF-β signaling [1]
  IC50: < 100 nM

## CCc1nc(-c2ccccc2)c(Oc2ccnc(Nc3ccc(NCCN4CCCC4)cc3)c2)s1 [A-208, N^1-(4-((2-Ethyl-4-phenylthiazol-5-yl)oxy)pyridin-2-yl)-N^4-(2-(pyrrolidin-1-yl)ethyl)benzene-1,4-diamine]
TGF-β signaling [1]
  IC50: < 100 nM

## CCc1nc(-c2ccccc2)c(Oc2ccnc(Nc3ccc(NCCN4CCN(C)CC4)cn3)c2)s1 [A-209, N^2-(4-((2-Ethyl-4-phenylthiazol-5-yl)oxy)pyridin-2-yl)-N^5-(2-(4-methylpiperazin-1-yl)ethyl)pyridine-2,5-diamine]
TGF-β signaling [1]
  IC50: < 100 nM

## CCc1nc(-c2ccccc2)c(Oc2ccnc(Nc3ccc(NCCN4CCCC4)cn3)c2)s1 [A-210, N^2-(4-((2-Ethyl-4-phenylthiazol-5-yl)oxy)pyridin-2-yl)-N^5-(2-(pyrrolidin-1-yl)ethyl)pyridine-2,5-diamine]
TGF-β signaling [1]
  IC50: < 100 nM

## CCc1nc(-c2ccccc2)c(Oc2ccnc(Nc3ccc(NCCN4CCN(CC)CC4)cn3)c2)s1 [A-211, N^2-(4-((2-Ethyl-4-phenylthiazol-5-yl)oxy)pyridin-2-yl)-N^5-(2-(4-ethylpiperazin-1-yl)ethyl)pyridine-2,5-diamine]
TGF-β signaling [1]
  IC50: < 100 nM

## CCc1nc(-c2ccccc2)c(Oc2ccnc(Nc3ccc(NCCN4CCN(C(C)C)CC4)cn3)c2)s1 [A-212, N^2-(4-((2-Ethyl-4-phenylthiazol-5-yl)oxy)pyridin-2-yl)-N^5-(2-(4-isopropylpiperazin-1-yl)ethyl)pyridine-2,5-diamine]
TGF-β signaling [1]
  IC50: < 100 nM

## Cc1cccc(-c2nc(N(C)C)sc2Oc2ccnc(Nc3ccc(C(=O)O)cn3)c2)n1 [A-285, 6-((4-((2-(Dimethylamino)-4-(6-methylpyridin-2-yl)thiazol-5-yl)oxy)pyridin-2-yl)amino)nicotinic acid]
ALK5 kinase
  IC50: < 100 nM
TGF-β signaling [2]
  IC50: < 100 nM

## CNC(=O)c1ccc(Nc2cc(Oc3sc(N(C)C)nc3-c3cccc(C)n3)ccn2)nc1 [A-286, 6-((4-((2-(Dimethylamino)-4-(6-methylpyridin-2-yl)thiazol-5-yl)oxy)pyridin-2-yl)amino)-N-methylnicotinamide]
ALK5 kinase
  IC50: < 100 nM
TGF-β signaling [2]
  IC50: < 100 nM

## Cc1cccc(-c2nc(C(C)C)sc2Oc2ccnc(Nc3cccc(S(N)(=O)=O)c3)c2)n1 [A-287, 3-((4-((2-Isopropyl-4-(6-methylpyridin-2-yl)thiazol-5-yl)oxy)pyridin-2-yl)amino)benzenesulfonamide]
ALK5 kinase
  IC50: < 100 nM
TGF-β signaling [2]
  IC50: < 100 nM

## Cc1cccc(-c2nc(C(C)C)sc2Oc2ccnc(Nc3ccc(C(N)=O)cn3)c2)n1 [A-288, 6-((4-((2-Isopropyl-4-(6-methylpyridin-2-yl)thiazol-5-yl)oxy)pyridin-2-yl)amino)nicotinamide]
ALK5 kinase
  IC50: < 100 nM
TGF-β signaling [2]
  IC50: < 100 nM

## Cc1cccc(-c2nc(C(F)(F)F)sc2Oc2ccnc(Nc3cccc(S(N)(=O)=O)c3)c2)n1 [A-289, 3-((4-((4-(6-Methylpyridin-2-yl)-2-(trifluoromethyl)thiazol-5-yl)oxy)pyridin-2-yl)amino)benzenesulfonamide]
ALK5 kinase
  IC50: < 100 nM
TGF-β signaling [2]
  IC50: < 100 nM

## Cc1cccc(-c2nc(C(F)(F)F)sc2Oc2ccnc(Nc3ccc(C(N)=O)cn3)c2)n1 [A-290]
ALK5 kinase
  IC50: < 100 nM
TGF-β signaling [2]
  IC50: < 100 nM

## Cc1cccc(-c2nc(C(F)(F)F)sc2Oc2ccnc(Nc3cccc(C(N)=O)c3)c2)n1 [A-291, 3-((4-((4-(6-Methylpyridin-2-yl)-2-(trifluoromethyl)thiazol-5-yl)oxy)pyridin-2-yl)amino)benzamide]
ALK5 kinase
  IC50: < 100 nM
TGF-β signaling [2]
  IC50: < 100 nM

## CNc1nc(-c2cccc(C)n2)c(Oc2ccnc(Nc3cccc(S(N)(=O)=O)c3)c2)s1 [A-292, 3-((4-((2-(Methylamino)-4-(6-methylpyridin-2-yl)thiazol-5-yl)oxy)pyridin-2-yl)amino)benzenesulfonamide]
ALK5 kinase
  IC50: < 100 nM
TGF-β signaling [2]
  IC50: < 100 nM

## Cc1cccc(-c2nc(C)sc2Oc2ccnc(Nc3cccc(S(N)(=O)=O)c3)c2)n1 [A-303, 3-((4-((2-Methyl-4-(6-methylpyridin-2-yl)thiazol-5-yl)oxy)pyridin-2-yl)amino)benzenesulfonamide]
ALK5 kinase
  IC50: < 100 nM
TGF-β signaling [2]
  IC50: < 100 nM

## Cc1cccc(-c2nc(C)sc2Oc2ccnc(Nc3cccc(CC#N)c3)c2)n1 [A-304]
ALK5 kinase
  IC50: < 100 nM
TGF-β signaling [2]
  IC50: < 100 nM

## Cc1cccc(-c2nc(C)sc2Oc2ccnc(Nc3cccc(C(C)(C)C(=O)O)c3)c2)n1 [A-309, 2-Methyl-2-(3-((4-((2-methyl-4-(6-methylpyridin-2-yl)thiazol-5-yl)oxy)pyridin-2-yl)amino)phenyl)propanoic acid]
ALK5 kinase
  IC50: < 100 nM
TGF-β signaling [2]
  IC50: < 100 nM

## CNc1nc(-c2ccccc2)c(Oc2ccnc(Nc3ccc(C(N)=O)cc3)c2)s1 [A-310, 4-((4-((2-(Methylamino)-4-phenylthiazol-5-yl)oxy)pyridin-2-yl)amino)benzamide]
ALK5 kinase
  IC50: < 100 nM
TGF-β signaling [2]
  IC50: > 100 nM
